The test system of one assay is IL-6. Briefly: LPS-stimulated IL-6 release in hPBMCs (ELISA). The format is cell-based. To be noted: Homo sapiens; LPS-stimulated hPBMC. How it is done: (§1) Primary screening—Human peripheral blood mononuclear cells (hPBMCs). TNF-α production by lipopolysaccharides (LPS) in hPBMCs was measured according to the method described by Jansky, L. et al (Physiol. Res. 52: 593-598, (2003)). Blood was collected from healthy donors into Potassium EDTA vacutainer tubes (BD vacutainer). The PBMCs were isolated using gradient centrifugation in Histopaque-1077 solution (Sigma). Isolated PBMCs were suspended in RPMI 1640 culture medium (Gibco BRL, Pasley, UK) containing 10% fetal bovine serum (FBS) (Hyclone, Utah, USA), 100 U/ml penicillin (Sigma Chemical Co. St Louis, Mo.) and 100 μg/ml streptomycin (Sigma Chemical Co. St Louis, Mo.). The cell concentration was adjusted to 1×10^6 cells/ml. The viability as determined by trypan blue dye exclusion was uniformly ≧98%. […] The % inhibition was recorded. Percent cytotoxicity of the test samples compared to control was evaluated.
(§2) The effect of the plant extract on the proinflammatory cytokines: TNF-α, interleukin-1β (IL-1β), interleukin-6 (IL-6) and interleukin-8 (IL-8) was measured using the supernatants generated in the primary screening assay. […]
(§3) The effect of the Compound 1, on the proinflammatory cytokines: TNF-α interleukin-1β (IL-1β), interleukin-6 (IL-6) and interleukin-8 (IL-8) was measured using the supernatants generated in the primary screening assay. […]
(In general: An ELISA detects its analyte on a solid surface through an enzyme-linked reagent.)

For assay [1], the system named is Collagen-induced arthritis (CIA). The assay can be described thus: Collagen-induced arthritis (CIA) in DBA/1J mice. The format is in vivo. To be noted: compared to vehicle treated group; H&E and Safranin O staining. As to the method:
Male DBA/1J mice, aged 8-10 weeks, were immunized with 200 μg Collagen Type II as an emulsion in Freund's Complete Adjuvant, by an intradermal injection at the base of the tail. Twenty-one days later, the mice were administered a booster shot of 100 μg Collagen Type II. A set of naïve mice was also maintained alongside. From Day 23 onwards, the mice were assessed for the onset of rheumatoid arthritis using the Articular Index as a parameter. Mice with a minimum hind paw score of 2 were inducted into the study. Extract of example 1 was administered at a dose of 400 mpk (Milligram per kilogram body weight) by oral route twice daily for 12 days. Compound 1 was administered at a dose of 50 mpk and 100 mpk. by oral route twice daily for 12 days. Enbrel (3 mg/kg) was used as a standard and was given subcutaneous once daily. Paw volume and articular index were recorded daily. The data was analysed for statistical significance. On termination of the experiment the paws of the mice were processed for histopathological evaluation. Beneficial effect of extract of example 1 and compound 1 on pathology of arthritic (CIA) DBA/1J mice was evaluated. Microscopy was carried out after Hematoxylin and Eosin staining as well as Safranin O staining of synovial joints.

The subject of another assay is IL-8. Briefly: LPS-stimulated IL-8 release in hPBMCs (ELISA). The class given is cell-based. The settings on record: Homo sapiens; LPS-stimulated hPBMC. As to the method:
as §1, §2, §3

A further assay has as its system ICAM-1. The assay can be described thus: Cell-ELISA for adhesion molecule expression in HUVECs: ICAM-1. The format is cell-based. To be noted: Homo sapiens; TNF-α-induced surface expression, HUVEC. As to the method: The assay was designed on the basis of reference Transplantation, Vol 63(5), 759-764, 1997 with modifications.
Human Umbilical Vein Endothelial Cells (HUVECs) were obtained from Cascade Biologics and were maintained in M200 (Cascade Biologics, Portland, Oreg.) supplemented with low serum growth supplement (LSGS) at 37° C. in a 5% CO2 incubator. U937 cells (ATCC, Manassas, Va.) were grown in the RPMI 1640 medium supplemented with 10% FBS (Hyclone, Logan, Utah). Recombinant human TNFα, antibodies to VCAM-1, ICAM-1, E-Selectin were obtained from R&D Systems and LPS was obtained from Sigma (St. Louis, Mo.).
HUVECs were plated at […] in 96-well fibronectin-coated plates. The cells were stimulated with TNF-α (10 ng/ml) or LPS (1 μg/ml), 30 min after addition of test compound. After stimulation, cells (E-Selectin and ICAM-1) were fixed with paraformaldehyde in phosphate buffer saline (PBS). Non specific binding was blocked by 2% bovine serum albumin (BSA) in phosphate buffer saline (PBS) for 1 h, and the cells were incubated with primary antibody for 2 h. […] After washing, seven times, 3,3′5,5′-tetramethylbenzidine liquid substrate (TMB substrate) was added and the optical density of each well was determined at 450 nm using a microtitre plate reader (Spectramax, Molecular Devices, Calif.). […] Percent inhibition of the test sample compared to the control is evaluated. […]

Another assay has as its system TNF-α. The assay can be described thus: LPS-induced TNF-α production in hPBMCs (ELISA). The format is cell-based. The settings on record: Homo sapiens; LPS-stimulated hPBMC. As to the method: as §1, with “≧98%. The cell suspension (100 μl) was added to the wells of a 96-well culture plate. Following cell plating, 79 μl of the culture medium and 1 μl of eight different concentrations of the test samples (final concentration 0.03, 0.1, 0.3, 1, 3, 10, 30, 100 μg/ml) dissolved in DMSO (dimethylsulfoxide, Sigma, Mo., USA) were added to the cells. The final concentration of DMSO was adjusted to 0.5%. The vehicle (0.5% DMSO) was used as control. Rolipram (100, 300 μM) was used as a standard. The plates were incubated for 30 min at 37° C. in an atmosphere of 5% CO2. Finally, 20 μl (10 μg/ml) per well of LPS, (Escherchia coli 0127:B8, Sigma Chemical Co., St. Louis, Mo.) was added, for a final concentration of 1 μg/ml.” for “≧98%.”
as §2, §3

The next assay concerns IL-1β. Briefly: LPS-stimulated IL-1β release in hPBMCs (ELISA). The format is cell-based. The settings on record: Homo sapiens; LPS-stimulated hPBMC. As to the method: as §1, §2, §3

Turning to `C=C1C(=O)OC2C3=C(C)CCCC3(C)CCC12O` (stereo not drawn) [Compound 1, 3a-hydroxy-5a,9-dimethyl-3-methylene-3a,4,5,5a,6,7,8,9b-octahydro-3H-naphtho[1,2-b]furan-2-one], the 50% inhibitory concentration (IC50) (as a rule, the concentration that gives 50% inhibition) in the assay with IL-6 was 1600 nM; with IL-8, 8900 nM; in the assay on ICAM-1 it was 520 nM; in the assay on TNF-α, 700 nM; in the assay with IL-1β, 400 nM. The “Histopathological analysis of synovial joints” value in assay [1] was “beneficial effects in terms of reducing cartilage destruction, bone destruction and synovitis”.

The record behind these values is patent US8206756B2, “Herbal composition for inflammatory disorders” (Piramal Life Sciences Limited, priority 2005, dated 2012).
